The results in this text go back to US7598397B2, “Sulfonamide peri-substituted bicyclics for occlusive artery disease” (deCODE genetics ehf, priority 2004, dated 2009).

The structures appear in SMILES notation.

This experiment concerns the target T1, prostanoid EP3 receptors (Homo sapiens, UniProt P43115).
T1 sequence (P43115 1-390): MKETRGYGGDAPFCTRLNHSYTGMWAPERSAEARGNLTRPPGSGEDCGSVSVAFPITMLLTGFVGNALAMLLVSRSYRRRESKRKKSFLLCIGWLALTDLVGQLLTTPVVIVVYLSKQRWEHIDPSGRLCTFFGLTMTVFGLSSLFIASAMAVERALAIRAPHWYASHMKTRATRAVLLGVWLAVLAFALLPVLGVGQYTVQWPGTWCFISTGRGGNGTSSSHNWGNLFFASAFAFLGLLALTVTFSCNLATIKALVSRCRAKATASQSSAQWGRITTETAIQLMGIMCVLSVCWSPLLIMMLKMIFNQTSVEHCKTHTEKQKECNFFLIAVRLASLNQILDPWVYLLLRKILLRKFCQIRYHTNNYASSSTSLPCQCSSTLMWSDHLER
Nature of the experiment: binding on prostanoid EP3 receptors (method of Abramovitz et al.). As to conditions: read-out: Activity (EP3 receptor binding, IC50 class). The protocol: The compounds of the invention were assayed for their binding on prostanoid EP3 receptors according to the method of Abramovitz et al. [Bioch. Biophys.
Usually IC50 stands for the concentration that inhibits the measured activity by half. On to `CC12CCCC(C=CC(=O)NS(=O)(=O)c3ccc(OC(F)(F)F)cc3)=C1N(Cc1ccc3ccccc3c1)C(=O)C2` (stereo not shown) [Compound P269], for which the concentration for half-maximal inhibition (IC50) is below 1 µM.
`Cc1cn(CCC(=O)NS(=O)(=O)c2cc(F)c(F)cc2F)c2c(Oc3ccc4ccccc4c3)cc(F)cc12` [Compound P378, 2,4,5-Trifluoro-N-{3-[5-fluoro-3-methyl-7-(naphthalen-2-yloxy)-indol-1-yl]-propionyl}-benzenesulfonamide]: the IC50 was below 1 µM.
In the case of `Cn1cc(C=CC(=O)NS(=O)(=O)c2ccc(F)c(F)c2)c2c(Oc3ccc(Cl)cc3Cl)cccc21` [Compound P302] it was below 1 µM; in that of `CCOP(=O)(NC(=O)OCc1cccc2ccn(Cc3ccc4ccccc4c3)c12)OCC` [Compound P044], 1 to 10 µM.
With `O=C(C=Cc1cccc2c1C(Nc1cc(Cl)cc(Cl)c1)C(=O)N2)NS(=O)(=O)c1cc(Cl)c(Cl)s1` (stereo not shown) [Compound P286], the IC50 was below 1 µM.
The value for `Cc1cn(CCC(=O)NS(=O)(=O)c2cccc(Cl)c2)c2c(Oc3ccc(Cl)cc3Cl)cc(F)cc12` [Compound P385] was below 1 µM; that for `Cc1ccc(S(=O)(=O)NC(=O)OCc2cccc3ccn(Cc4ccc5ccccc5c4)c23)cc1` [Compound P038] was below 1 µM; that for `CC12CCCC(CCC(=O)NS(=O)(=O)c3cc(F)c(F)cc3F)C1N(Cc1ccc(F)c(F)c1)C(=O)C2` (stereo not shown) [Compound P410] was below 1 µM.
In the case of `Cc1cn(Cc2ccc(Cl)cc2Cl)c2c(C(=O)NS(=O)(=O)c3ccc(F)c(F)c3)cc(F)cc12` [Compound P417] it was below 1 µM; in that of `O=C(C=Cc1cccc2c1N(Cc1ccc3ccccc3c1)C(=O)C2)NS(=O)(=O)c1cccs1` [Compound P217], below 1 µM; in that of `CC12CCCC(C=CC(=O)NS(=O)(=O)c3cccs3)=C1N(Cc1ccc(Cl)cc1Cl)C(=O)C2` (stereo not shown) [Compound P276], below 1 µM.
The value for `O=C(CCc1cccc2c1N(Cc1ccc3ccccc3c1)C(=O)C21OCCO1)NS(=O)(=O)c1cccs1` [Compound P097] was below 1 µM; that for `Cc1nnc(Sc2c[nH]c3cccc(OCC(=O)NS(=O)(=O)c4cc(Cl)c(Cl)s4)c23)s1` [Compound P230] was below 1 µM; that for `Cc1cn(CCC(=O)NS(=O)(=O)c2cc(F)c(F)cc2F)c2c(Oc3ccc(Cl)c(Cl)c3)cc(F)cc12` [Compound P386] was below 1 µM.
`Cc1nc2cccc(OCC(=O)NS(=O)(=O)c3cccs3)c2n1Cc1ccc2ccccc2c1` [Compound P037, Thiophen-2-sulfonic acid [2-(2-methyl-3-naphthalen-2-ylmethyl-3H-benzoimidazol-4-yloxy)-acetyl] amide]: the 50% inhibitory concentration (IC50) is 1 to 10 µM.
Take `CC12CCCC(C=CC(=O)NS(=O)(=O)c3cc(Cl)cc(Cl)c3)=C1N(Cc1ccc(F)c(F)c1)C(=O)C2` (stereo not shown) [Compound P266]: the 50% inhibitory concentration (IC50) was below 1 µM.
Consider `Cn1cc(C=CC(=O)NS(=O)(=O)c2cc(F)c(F)cc2F)c2c(Oc3ccc(Cl)cc3)cccc21` [Compound P309], for which the IC50 is below 1 µM.
On to `Cc1cn(Cc2ccc(F)cc2)c2c(C=CC(=O)NS(=O)(=O)c3cc(F)cc(F)c3)cc(F)cc12` [Compound P316], for which the IC50 was below 1 µM.
The value for `Cn1cc(C=CC(=O)NS(=O)(=O)c2cc(F)c(F)cc2F)c2c(Oc3ccc(Cl)cc3F)cccc21` [Compound P337] was below 1 µM; that for `COc1c(C)cnc(Cn2ccc3cccc(C=CC(=O)NS(=O)(=O)c4cccs4)c32)c1C` [Compound P055] was 1 to 10 µM; that for `O=C(Cn1c(=O)ccc2cccc(OCc3ccc4ccccc4c3)c21)NS(=O)(=O)c1cccs1` [Compound P012] was above 10 µM.
Turning to `COc1ccc(S(=O)(=O)c2c[nH]c3cccc(OCC(=O)NS(=O)(=O)c4cc(Cl)c(Cl)s4)c23)cc1OC` [Compound P170], the half-maximal inhibitory concentration (IC50) is below 1 µM.
In the case of `O=C(C=Cc1cccc2c1N(Cc1ccc(Cl)cc1Cl)C(=O)C2(O)C[N+](=O)[O-])NS(=O)(=O)c1cc(Cl)c(Cl)s1` (stereo not shown) [Compound P134] it was below 1 µM.
Regarding `Cc1cn(Cc2cc(F)cc(F)c2)c2c(/C=C/C(=O)NS(=O)(=O)c3cc(Cl)c(Cl)s3)cccc12` [Compound P136], the half-maximal inhibitory concentration (IC50) was below 1 µM.
In the case of `O=C(C=Cc1cccc2c1C(=Nc1ccc3ccccc3c1)C(=O)N2)NS(=O)(=O)c1cc(Cl)c(Cl)s1` [Compound P244] it was below 1 µM; in that of `Cn1cc(/C=C/C(=O)NS(=O)(=O)c2cc(Cl)c(Cl)s2)c2c(Oc3ccc(Cl)cc3F)cccc21` [Compound P339], below 1 µM; in that of `CC12CCCC(C=CC(=O)NS(=O)(=O)c3cccc(Cl)c3)=C1N(Cc1ccc(Cl)cc1Cl)C(=O)C2` (stereo not shown) [Compound P281], below 1 µM.
The value for `Cn1cc(C=CC(=O)NS(=O)(=O)c2ccc(F)cc2F)c2c(Oc3ccc4ccccc4c3)cccc21` [Compound P358] was below 1 µM; that for `Cn1cc(C=CC(=O)NS(=O)(=O)c2cc(Cl)c(Cl)s2)c2c(Oc3ccc(Cl)c(Cl)c3)cccc21` [Compound P290] was below 1 µM; that for `Cn1cc(C=CC(=O)NS(=O)(=O)c2c(F)cccc2F)c2c(Oc3ccc4ccccc4c3)cccc21` [Compound P360] was below 1 µM.
In the case of `Cc1cn(Cc2ccc3ccccc3c2)c2c(CCC(=O)NS(=O)(=O)c3cc(Cl)c(Cl)s3)cccc12` [Compound P073] it was below 1 µM; in that of `O=C(C=Cc1cccc2c1N(Cc1ccc(Cl)cc1Cl)C(=O)C2)NS(=O)(=O)c1cc(Cl)c(Cl)s1` [Compound P127], below 1 µM; in that of `Cc1cn(Cc2ccccc2)c2c(/C=C/C(=O)NS(=O)(=O)c3cccs3)cccc12` [Compound P084], below 1 µM.
With `Cn1cc(C=CC(=O)NS(=O)(=O)c2cc(Cl)c(Cl)s2)c2c(Oc3cccc(Cl)c3Cl)cccc21` [Compound P291], the IC50 is below 1 µM.
For `COc1cccc(CN2C(=O)CC3(C)CCCC(C=CC(=O)NS(=O)(=O)c4ccc(F)c(F)c4)=C23)c1` (stereo not shown) [Compound P308], the IC50 is below 1 µM.
Regarding `Cc1cn(Cc2ccc(Cl)cc2Cl)c2c(C=CC(=O)NS(=O)(=O)c3cc(Cl)c(Cl)s3)cncc12` [Compound P348], the IC50 is below 1 µM.
`COc1cc(Cn2cc(C)c3cc(F)cc(C=CC(=O)NS(=O)(=O)c4ccc(F)c(F)c4)c32)cc(OC)c1` [Compound P374]: the IC50 is below 1 µM.
The value for `Cc1cn(Cc2ccc3ccccc3n2)c2c(/C=C/C(=O)NS(=O)(=O)c3cc(Cl)c(Cl)s3)cccc12` [Compound P146] was below 1 µM; that for `O=C(C=Cc1cccc2c1N(Cc1ccc3ccccc3c1)C(=O)C2(F)F)NS(=O)(=O)c1cc(Cl)c(Cl)s1` [Compound P180] was below 1 µM.
The value for `O=C(COc1cccc2c1N(Cc1ccc(OC(F)(F)F)cc1)C(=O)CO2)NS(=O)(=O)c1cccs1` [Compound P027] was 1 to 10 µM; that for `O=C(C=Cc1cccc2c1C(Nc1ccc(Cl)cc1Cl)C(=O)N2)NS(=O)(=O)c1cc(Cl)c(Cl)s1` (stereo not shown) [Compound P287] was below 1 µM.
`O=C(C=Cc1cccc2ccn(Cc3ccc(Cl)cc3Cl)c12)NS(=O)(=O)c1cc(Cl)c(Cl)s1` [Compound P129]: the IC50 is below 1 µM.
In the case of `O=C(COc1cccc2c1C(F)(Cc1ccc3ccccc3c1)C(=O)N2)NS(=O)(=O)c1cc(Cl)c(Cl)s1` (stereo not shown) [Compound P157] it was below 1 µM; in that of `O=C(COc1cccc2c1N(Cc1ccccc1C(F)(F)F)C(=O)CO2)NS(=O)(=O)c1cccs1` [Compound P031], 1 to 10 µM.
In the case of `Cc1cn(CCC(=O)NS(=O)(=O)c2cc(Cl)c(Cl)s2)c2c(Oc3ccc(Cl)cc3Cl)cc(F)cc12` [Compound P384] it was below 1 µM; in that of `Cc1cn(Cc2cc(F)cc(F)c2)c2c(/C=C/C(=O)NS(=O)(=O)c3cccs3)cccc12` [Compound P088], below 1 µM.
For `O=C(COc1cccc2[nH]cc(Sc3ccccc3Cl)c12)NS(=O)(=O)c1cc(Cl)c(Cl)s1` [Compound P213], the IC50 is below 1 µM.
For `CC12CCCC(C=CC(=O)NS(=O)(=O)c3ccc(F)cc3)=C1N(Cc1ccc(Cl)cc1Cl)C(=O)C2` (stereo not shown) [Compound P274], the concentration for half-maximal inhibition (IC50) was below 1 µM.
On to `Cn1nnnc1Sc1c[nH]c2cccc(OCC(=O)NS(=O)(=O)c3cc(Cl)c(Cl)s3)c12` [Compound P227], for which the IC50 was below 1 µM.
As to `Cn1cc(C=CC(=O)NS(=O)(=O)c2ccc(Cl)cc2)c2c(Oc3ccc4ccccc4c3)cccc21` [Compound P365], the IC50 is below 1 µM.
Consider `O=C(C=Cc1cccc2c1N(Cc1ccc3ccccc3c1)C(=O)C2(F)F)NS(=O)(=O)c1cccs1` [Compound P218], for which the 50% inhibitory concentration (IC50) is below 1 µM.
The value for `O=C(COc1cccc2c1N(Cc1ccc3ccccc3c1)C(=O)CO2)NS(=O)(=O)c1cccs1` [Compound P018] was below 1 µM; that for `O=C(COc1cccc2[nH]cc(Sc3ccc(Cl)cc3Cl)c12)NS(=O)(=O)c1cc(Cl)c(Cl)s1` [Compound P205] was below 1 µM.
As for `Cc1ccc(C)c(Cn2c(=O)oc3cccc(OCC(=O)NS(=O)(=O)c4cccs4)c32)c1` [Compound P053], the IC50 fell in the range of 1 to 10 µM.
As for `CC1C(=O)N(Cc2ccc(Cl)cc2Cl)c2c(C=CC(=O)NS(=O)(=O)c3cccs3)cccc21` (stereo not shown) [Compound P058], the IC50 was below 1 µM.
The value for `CC12CCCC(C=CC(=O)NS(=O)(=O)c3cc(F)cc(F)c3)=C1N(Cc1ccc(F)cc1)C(=O)C2` (stereo not shown) [Compound P295] was below 1 µM; that for `CN1C(=O)C(Nc2ccc(F)c(F)c2)c2c(C=CC(=O)NS(=O)(=O)c3cc(Cl)c(Cl)s3)cccc21` (stereo not shown) [Compound P272] was below 1 µM; that for `CN1C(=O)C(C)(Cc2ccc3ccccc3c2)c2c(CCC(=O)NS(=O)(=O)c3cc(Cl)c(Cl)s3)cccc21` (stereo not shown) [Compound P156] was below 1 µM.
